Where only a bound is given, the exact number is not on record here.

Broadly, the IC50 is the midpoint of a concentration-inhibition curve.

Common to all, as to assay type: cell-based
Test [1] deals with LPS activated BMΦ (rat microglia). Description: Assay for BMΦ O2− generation (SOD-inhibitable reduction of ferricytochrome C), PMA-stimulated, LPS-activated BMΦ. As to conditions: PMA (1 μM)-stimulated O2− release from LPS (0.3 ng/ml, 17 h)-activated rat BMΦ, manzamine 20 min preincubation + 70 min. On the procedure: (§1) Isolation and culture of rat BMΦ. Briefly to prepare primary BMΦ cultures, cerebral cortices from 1-2-day-old Sprague-Dawley rats (Harlan, Indianapolis, Ind.) were placed in cold DMEM+10% heat-inactivated FBS+120 U/ml P and 12 μg/ml S, meninges carefully removed, brain tissue minced and dissociated with trypsin-EDTA at 37° C. for 3-5 minutes. The mixed glial cell suspension was plated in either 75 or 162 cm^2 culture flasks with DMEM containing 10% heat-inactivated FBS+120 U/ml P and 12 μg/ml S and grown in a humidified 5% CO2 incubator at 37° C. On day 7 of culture, flasks were shaken (90 rpm, 20 min, 37° C.) and media exchanged. On day 14 and every 3-4 days thereafter, BMΦ were detached using an orbital shaker (200 rpm, 2 hours, 37° C., 5% CO2), then centrifuged (450×g, 25 min, 4° C.). The pellet containing BMΦ was resuspended gently with cold DMEM, cell number and viability assessed by trypan blue exclusion. Purified BMΦ obtained by our method averaged>than 95% viability. Microglia were characterized as previously described (Mayer et al., 1999, supra).
Assay for BMΦ O2^− generation. BMΦ O2^− generation was determined by the superoxide dismutase(SOD)-inhibitable reduction of ferricytochrome C(FCC) (Mayer et al., 1999, supra). Briefly, spontaneous O2^− release from unstimulated BMΦ was measured in the presence of FCC (50 μM) and HBSS with or without SOD (700 units). To determine PMA-stimulated O2^− release, BMΦ containing wells received FCC, HBSS and PMA [1 μM] with or without SOD which inhibited>95% of FCC reduction. All experimental treatments were run in triplicate and in a final volume of 1 ml. Changes in absorbance of BMΦ supernatants were measured at 550 nm using a Beckman DU-650 Spectrophotometer. Differences in the amount of reduced FCC in the presence or absence of SOD were used to determine BMΦ O2^− generation by employing the molecular extinction coefficient of 21.0×10^3 M^−1 cm^−1.
(§2) To establish the effect of Manzamine A, B, C, D, E and F on BMΦ O2^−, TXB2, and LDH generation the following procedure was used:
(§3) (1) 2-5×10^5 BMΦ were seeded into each well of 24-well flat-bottom culture clusters.
(§4) (2) 1 ml of DMEM+10% heat-inactivated FBS+120 U/ml P and 12 μg/ml S were added.
(§5) (3) BMΦ were allowed to attach for 2 hours, at 37° C., 5% CO2, and monolayers then washed 3 times with 1 ml warm (37° C.) DMEM+10% heat-inactivated FBS+120 U/ml P and 12 μg/ml S were added.
(§6) (4) 1 ml of DMEM+10% heat-inactivated FBS+120 U/ml P and 12 μg/ml S were added.
(§7) (5) Then, LPS (0.3 ng/ml final concentration) was added to each well.
(§8) (6) BMΦ were then incubated for 17 hours in a humidified 5% CO2 incubator at 37° C.
(§9) (7) Thereafter, the media was removed from each tissue culture well and discarded.
(§10) (8) BMΦ monolayers were washed 3 times with 1 ml warm (37° C.) HBSS.
(§11) To study the effect of Manzamines A, B, C, D, E and F on PMA-stimulated release of O2^− and TXB2 from BMΦ activated with LPS as described in (A) we proceeded as follows.
(§12) (1) Add HBSS, Manzamines A, or B, or C, or D, or E, or F, DMSO and Triton X-100 1% to the tissue culture wells containing LPS-activated BMΦ, as shown in Table 1.
(§13) (2) Incubate the tissue culture plates for 20 minutes in a humidified 5% CO2 incubator at 37° C.
(§14) (3) Remove the tissue culture plates from the incubator and return to laminar flow hood.
(§15) (4) Incubate tissue culture plates for an additional 70 minutes in CO2 incubator at 37° C.
(5) When incubation is complete, aspirate BMΦ supernates from each well (1 ml), and place in a 1.5 ml microcuvette. Proceed to reach absorbance as indicated above in Assay for BMΦ O2^− generation.

For test [2] the test system is unchanged. Put plainly: Assay for BMΦ thromboxane B2 (TXB2) generation (immunoassay), PMA-stimulated, LPS-activated BMΦ. As to conditions: PMA (1 μM)-stimulated TXB2 release from LPS (0.3 ng/ml, 17 h)-activated rat BMΦ, manzamine 20 min preincubation + 70 min. On the procedure: as §1
Assay for BMΦ thromboxane B2 (TXB2) generation. Following stimulation with PMA, TXB2 generation in the BMΦ culture supernatants was measured using immunoassays (Cayman Chemical, Ann Arbor, Mich.) as indicated by the manufacturer's protocol (Mayer, et al., 1999, supra).
as §2, §3, §4, §5, §6, §7, §8, §9, §10, §11, §12, §13, §14, §15
(§16) (6) Once (5) is completed use the same BMΦ supernates to determine both LDH and TXB2 as described above in Assay for BMΦ TXB2 generation and LDH assay.

For test [3] the test system is unchanged. Description: LDH assay (lactate dehydrogenase release, BMΦ viability). The settings on record: LDH release (toxicity) from LPS-activated rat BMΦ, same supernates. On the procedure:
as §1
LDH assay. To assess BMΦ viability following incubation with vehicle (DMSO) or the manzamines, lactate dehydrogenase (LDH) release was determined spectrophotometrically as previously described (Mayer et al., 1999, supra).
as §2, §3, §4, §5, §6, §7, §8, §9, §10, §11, §12, §13, §14, §15, §16

Take `O=C1CCCN2[C@@H](CC1)C[C@]13CN4CCCC/C=C\CC[C@](O)(C=C(c5nccc6c5[nH]c5c(O)cccc56)C1CC4)[C@H]23` (some centres unmarked) [Manzamine F, manzamine F]: the IC50 is > 10 µM in test [1] (Microglia), > 10000 nM in test [2] (Microglia) and > 10 µM in test [3] (Microglia).

With `C1=C\CCCCN(CCc2nccc3c2[nH]c2ccccc23)CCCC/1` [Manzamine C, manzamine C], the figures for the IC50 in test [1] (Microglia), in test [2] (Microglia) and in test [3] (Microglia) were ~5 µM, ~5000 nM and ~5 µM, respectively.

As to `O=C1CCCN2C(CC1)C[C@]13CN4CCCC/C=C\CC[C@](O)(C=C(c5nccc6c5[nH]c5ccccc56)[C@@H]1CC4)[C@H]23` (some centres unmarked) [Manzamine E, manzamine E], the IC50 in test [1] (Microglia) and in test [3] (Microglia) was > 10 µM throughout.

On to `O[C@]12C=C(c3nccc4c3[nH]c3ccccc34)[C@@H]3CCN(CCCC/C=C\CC1)C[C@@]31C[C@@H]3/C=C\CCCCN3[C@H]12` [Manzamine A, manzamine A], for which the figures for the IC50 in test [1], in test [2] and in test [3] were 0.1 µM, < 100 nM and > 30 µM, respectively.

Consider `C1=C\CC[C@]23CN4CCCC/C=C\CC[C@@]5(OC5[C@@H](c5nccc6c5[nH]c5ccccc56)[C@@H]2CC4)[C@@H]3NCCCC/1` (some centres unmarked) [Manzamine B, manzamine B], for which the IC50 in test [1] (Microglia) was ~5 µM; in test [2] (Microglia) it was ~3000 nM; in test [3] (Microglia) it was ~3 µM.

Consider `O[C@]12C=C(C3NCCc4c3[nH]c3ccccc43)[C@@H]3CCN(CCCC/C=C\CC1)C[C@@]31CC3/C=C\CCCCN3[C@H]12` (some centres unmarked) [Manzamine D, manzamine D], for which the results for the IC50 in test [1] (Microglia), in test [2] (Microglia) and in test [3] (Microglia) were ~0.5 µM, ~300 nM and ~0.5 µM, respectively.

(Values after patent US6602881B2, “Anti-inflammatory uses of manzamines” (priority 1999, dated 2003).)
